# Values joined by “and” are separate entries in the source; they are usually repeats but may differ in a detail not shown here. Equal entries are not always repeated.
# How the values were obtained:
# [1] = tested on: elderly patients (≥60 years) with essential hypertension; assay: […] study: central aortic pressures (CASP, CPP/CAPP, central DBP, central MAP) by SphygmoCor X-CEL; format: in vivo, human; settings: for LSM change from baseline (SE) in mean CPP at Week 12 endpoint / LSM change from baseline (SE) in mean CASP at Week 12 endpoint: monotherapy; for LSM change from baseline (SE) in mean CASP at Week 12 endpoint: olmesartan 40 mg/day; for LSM change from baseline (SE) in mean CASP at Week 52 endpoint / LSM change from baseline (SE) in mean CPP at Week 52 endpoint: add-on amlodipine/HCTZ allowed; for Change from baseline to 12 weeks, mscDBP / Change from baseline to 52 weeks, mscDBP: mean sitting central diastolic BP; for Change from baseline to 12 weeks, mscMAP / Change from baseline to 52 weeks, mscMAP: mean sitting central mean arterial pressure, mean
# Experimental: The term CAPP refers to central aortic PP. In the context of the present invention CAPP is measured with the SphygmoCor X-CEL System (AtCor Medical, Sydney, Australia) to non-invasively derive the ascending aortic pressure waveform from the brachial waveform using a validated generalised transfer function (GTF). A properly sized BP cuff is linked to a computer and software and the CASP, CAPP, augmentation pressure, and Alx are determined from the analysis of waveform by the system software. […]
# The primary and secondary endpoints are changes from baseline in central aortic systolic pressure (CASP) and central aortic PP (CAPP) at week 12, respectively. Other secondary endpoints are the changes in CASP and CAPP at week 52. […] The primary variable will be analysed using a two-way analysis of covariance.
# The SphygmoCor X-CEL System (AtCor Medical, Sydney, Australia) is being used to non-invasively derive the ascending aortic pressure waveform from the brachial waveform using a validated generalised transfer function (GTF).22 A properly sized BP cuff is linked to a computer and software and the CASP, CAPP, augmentation pressure, and Alx are determined from the analysis of waveform by the system software.
# A sample size of 183 completers per group is targeted, which is calculated based on the primary efficacy variable, change from baseline in mean CASP at 12 weeks, assuming a standard deviation of 19 mm Hg. […] Assuming a 15% dropout rate, the total targeted sample size to be randomised is 432 patients (216 per group). The primary variable at the Week 12 endpoint will be analysed using a two-way analysis of covariance (ANCOVA), with treatment and region as factors and the baseline as a covariate. Mean CAPP at the Week 12 endpoint will be analysed using the same type of ANCOVA model used for the primary efficacy analysis. A two-sided significance at 0.05 level will be used for this analysis and a 95% confidence interval for the treatment difference will be provided.
# [2] = tested on: patients with mild-to-moderate essential hypertension; settings: LCZ696 100, 200 and 400 mg once daily; cited from earlier work
# [3] = tested on: patients with heart failure with preserved ejection fraction; settings: cited from earlier work
# [4] = Week 12 endpoint, FAS, LCZ696 400 mg/day
# [5] = Week 52 endpoint (LOCF), FAS, listed as olmesartan
Structure (SMILES),"LSM change from baseline (SE) in mean CPP at Week 12 endpoint ([1]; Week 12 endpoint, FAS)","LSM change from baseline (SE) in mean CASP at Week 12 endpoint [1, 4]","LSM change from baseline (SE) in mean CASP at Week 52 endpoint ([1]; Week 52 endpoint (LOCF), FAS)","LSM change from baseline (SE) in mean CPP at Week 52 endpoint ([1]; Week 52 endpoint (LOCF), FAS)","Change from baseline to 12 weeks, mscDBP ([1]; 12 weeks)","Change from baseline to 52 weeks, mscDBP ([1]; 52 weeks)","Change from baseline to 12 weeks, mscMAP ([1]; 12 weeks)","Change from baseline to 52 weeks, mscMAP ([1]; 52 weeks)",other results
"CCCc1nc(C(C)(C)O)c(C(=O)O)n1Cc1ccc(-c2ccccc2-c2nnn[nH]2)cc1 [Olmesartan, reference compound]",−3.96 (0.69) mmHg,−8.90 (1.01) mmHg,−14.70 (0.96) mmHg,−6.65 (0.69) mmHg,−5.0 mmHg,−8.1 mmHg,−6.7 mmHg,−9.1 mmHg,"LSM change from baseline (SE) in mean CASP at Week 12 endpoint ([1]; Week 12 endpoint, FAS, LCZ696 400 mg/day, listed as olmesartan): −8.90 mmHg; LSM change from baseline (SE) in mean CPP at Week 12 endpoint ([1]; Week 12 endpoint, FAS, listed as olmesartan): −3.96 mmHg; LSM change from baseline (SE) in mean CASP at Week 52 endpoint [1, 5]: −14.70 mmHg; LSM change from baseline (SE) in mean CPP at Week 52 endpoint [1, 5]: −6.65 mmHg"
"CCCCC(=O)N(Cc1ccc(-c2ccccc2-c2nn[n-]n2)cc1)C(C(=O)[O-])C(C)C.CCCCC(=O)N(Cc1ccc(-c2ccccc2-c2nn[n-]n2)cc1)C(C(=O)[O-])C(C)C.CCOC(=O)C(C)CC(Cc1ccc(-c2ccccc2)cc1)NC(=O)CCC(=O)[O-].CCOC(=O)C(C)CC(Cc1ccc(-c2ccccc2)cc1)NC(=O)CCC(=O)[O-].O.O.O.O.O.[Na+].[Na+].[Na+].[Na+].[Na+].[Na+] [LCZ696, trisodium [3-((1S,3R)-1-biphenyl-4-ylmethyl-3-ethoxycarbonyl-1-butylcarbamoyl) propionate-(S)-3′-methyl-2′-(pentanoyl{2″-(tetrazol-5-ylate)biphenyl-4′-ylmethyl}amino)butyrate]hemipentahydrate]",−6.41 mmHg and −6.41 (0.69) mmHg,−12.57 mmHg and −12.57 (1.01) mmHg,−16.18 mmHg and −16.18 (0.96) mmHg,−7.16 mmHg and −7.16 (0.69) mmHg,−6.1 mmHg,−8.8 mmHg,−8.0 mmHg,−9.6 mmHg,"BP reductions vs corresponding doses of valsartan alone (160 and 320 mg) [2]: greater BP reductions than corresponding doses of valsartan alone; tolerability [2]: well tolerated; lowering of CASP and CPP vs olmesartan 40 mg/day ([1]; LCZ696 400 mg/day, after 12 weeks of monotherapy): to a greater extent than olmesartan; Between-treatment difference, mscDBP, 12 weeks ([1]; LCZ696 regimen vs olmesartan regimen, 12 weeks): −1.1 (0.90) mmHg; Between-treatment difference, mscDBP, 52 weeks ([1]; LCZ696 regimen vs olmesartan regimen, 52 weeks): −0.7 (0.86) mmHg; LSM difference in change from baseline (SE), mean CPP, LCZ696 vs Olmesartan ([1]; Week 12 endpoint, FAS, ANCOVA, p=0.012): −2.45 mmHg and −2.45 (0.96) mmHg; LSM difference in change from baseline (SE), mean CASP, LCZ696 vs Olmesartan ([1]; Week 52 endpoint (LOCF), FAS, p=0.271): −1.49 (1.35) mmHg; LSM difference in change from baseline (SE), mean CPP, LCZ696 vs Olmesartan ([1]; Week 52 endpoint (LOCF), FAS, p=0.598): −0.51 (0.97) mmHg; reduction of NT-proBNP vs valsartan alone ([3]; at 12 weeks): to a greater extent than valsartan alone; tolerability ([3]; heart failure with preserved ejection fraction): well tolerated"

# Reference: patent US10596151B2, “Methods and pharmaceutical compositions for reducing arterial stiffness with a combination of a therapeutic agent blocking the angiotensin receptor and a therapeutic agent inhibiting the NEP enzyme” (Novartis AG, priority 2015, dated 2020)
